Measurements published in publication PMC10514461, “Characterization of a novel inhibitor for the New Delhi metallo-β-lactamase-4: Implications for drug design and combating bacterial drug resistance” (The Journal of Biological Chemistry, 2023).

What was measured:
[1] = test system: NDM-1; type: biochemical; conditions: against the NDMs (NDM-1 and NDM-4)
Procedure: The IC50 and Ki values were determined by the direct competition between nitrocefin substrate and inhibitors under appropriately controlled experiments. Different concentrations of inhibitor ranging from 0.001 to 500 μM, a fixed concentration of 12 nM of purified protein, and 20 μM of nitrocefin substrate were used in reaction. The rate of product formation was monitored based on the absorbance at 486 nm taken at 10 s intervals for 30 min. The relative change in absorbance was evaluated as percentage inhibition, and the IC50 was determined by fitting the data to a sigmoidal dose-response curve. The enzyme inhibition constant (Ki) was derived from initial-velocity measurements by nonlinear regression via competitive-inhibition enzyme kinetics using GraphPad Prism 9.

[2] = test system: Verona-integron-encoded MBL 2; conditions: against Verona-integron-encoded MBL 2; cited from earlier work
[3] = target: NDM-1 (Klebsiella pneumoniae, UniProt C7C422); test: Steady state kinetics of nitrocefin hydrolysis, NDM-1; type: biochemical; conditions: nitrocefin as substrate
Procedure: (§1) Nitrocefin (Cayman, CAS 41906-86-9) was used as the chromogenic substrate for all enzyme kinetic assays. The enzymatic activity of purified NDM-1 and NDM-4 was determined spectrophotometrically at room temperature in 1X PBS, pH 7. The rate of product formation was monitored based on the absorbance at 486 nm taken at 10 s intervals for 30 min. The KM and kcat values were determined from ten different concentrations of nitrocefin ranging from 0.01 μM to 250 μM with at least four independent initial-velocity measurements using 12 nM of each enzyme and fitted by nonlinear regression using Michaelis–Menten enzyme kinetics with GraphPad Prism 9 (https://www.graphpad.com/).

[4] = target: T1, NDM-4 (M154L) (Klebsiella pneumoniae, UniProt C7C422, M154L); test: Steady state kinetics of nitrocefin hydrolysis, NDM-4; type: biochemical; conditions: nitrocefin as substrate
T1 construct: The electron density for the polypeptide chain was continuous from Gly 42 to Arg 270; polyhistidine (with TEV site) (N, cleaved yes); made in house; host or cells: Rosetta2(DE3) E. coli
Procedure: as §1

Chain of NDM-1 (Klebsiella pneumoniae, UniProt C7C422) (C7C422 42-270 limits assumed): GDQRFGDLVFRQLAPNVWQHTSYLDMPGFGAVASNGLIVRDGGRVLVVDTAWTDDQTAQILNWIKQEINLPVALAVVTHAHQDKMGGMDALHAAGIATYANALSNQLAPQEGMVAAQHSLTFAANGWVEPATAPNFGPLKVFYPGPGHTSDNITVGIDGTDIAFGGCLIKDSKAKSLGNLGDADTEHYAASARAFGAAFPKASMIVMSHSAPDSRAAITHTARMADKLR
T1 sequence (C7C422 42-270 M154L): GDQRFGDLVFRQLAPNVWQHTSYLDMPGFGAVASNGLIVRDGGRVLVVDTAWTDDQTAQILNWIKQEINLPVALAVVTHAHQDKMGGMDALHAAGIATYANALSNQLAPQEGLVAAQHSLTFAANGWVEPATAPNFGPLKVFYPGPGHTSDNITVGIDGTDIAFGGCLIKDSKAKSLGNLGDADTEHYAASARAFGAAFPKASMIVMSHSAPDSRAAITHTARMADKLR

Row | SMILES | potency over L-captopril [1] [fold] | enhanced inhibition activity over parent scaffold 1,2 hydroxy pyrithione [2] | kcat ([3]; NDM-1) [s⁻¹] | Km ([3]; NDM-1, 1X PBS pH 7, room temperature) [µM] | kcat ([4]; NDM-4) [s⁻¹] | Km ([4]; NDM-4, 1X PBS pH 7, room temperature) [µM]
1 | O=C(O)c1cccc(=S)n1O [Compound 1, 1-hydroxypyridine-2(1H)-thione-6-carboxylic acid] | > 1600 | more than 10 fold | – | – | – | –
2 | O=C(Cc1cccs1)N[C@@H]1C(=O)N2C(C(=O)O)=C(/C=C/c3ccc([N+](=O)[O-])cc3[N+](=O)[O-])CS[C@H]12 [Nitrocefin] | – | – | 86 ± 11 | 10.9 ± 0.6 | 70 ± 7 | 9.4 ± 0.2
